Test results taken from PMC7170889, “Synthesis and evaluation of designed PKC modulators for enhanced cancer immunotherapy” (Nature Communications, 2020).

Key:
PKCδ-GFP fusion protein = target: T1, PKCδ-GFP fusion protein (Homo sapiens, UniProt Q05655); assay: PKCδ-GFP translocation assay in living CHO-k1 cells (confocal microscopy); format: cell-based, Chinese hamster; details: for Emax at 1 µM: CHO-K1, 1000 nM compound; for minimum effective concentration required to induce translocation of PKC-GFP to the membrane: tested at 200 and 1000 nM
T1 construct: expressed in transfected cells; host or cells: CHO-k1 (Chinese hamster ovary, ATCC)
Experimental: (§1) With a panel of compounds bearing diverse functionality at C13, we began to explore how these modifications affect PKC binding and biological function. Because an obvious prerequisite for PKC pathway involvement is binding to PKC, compounds were initially evaluated for PKC affinity in a cell-free competitive binding assay with tritiated phorbol dibutyrate ([^3H]-PDBu). Assays were performed with representative members of both the conventional (PKCα) and novel (PKCδ) PKC families. Subsequently, compounds were assayed for PKC isoform translocation in real time in living cells using an optical assay. Translocation to the plasma membrane is the hallmark of PKC activation[18],[57],[60] and therefore monitoring the subcellular localization of a PKCδ-GFP fusion protein via confocal microscopy offers a convenient method for determining whether a compound enters a cell and engages its PKC isoform target. Finally and of clinical significance, we also determined the effect of compounds on CD22 surface expression in vitro in NALM6 cells, an ALL cell line previously studied in connection with CD22-targeted CAR T cell therapy, and two additional lymphoma cell lines[11],[31],[65].
Scale bar represents 25 μm. Experiments performed in n = 3 biological replicates. b–d Cytosolic fluorescence normalized to t = 0 (time immediately prior to addition of compound to media) and plotted against time. Error bars excluded for clarity (data presented as the mean of n = 3 biological replicates). Individual curves with error bars included in Supplementary Information.
PKCδ-GFP Translocation Assay Protocol
Chinese hamster ovary factor K1 (CHO-k1, ATCC) cells were cultured in F-12 Kaighn’s media (Hyclone, 10% fetal bovine serum, 1% penicillin/streptomycin added, reffered to as F-12 +/+ below) at 37 ° C in an incubator (5% CO2). Cell cultures were maintained by splitting cells 1:3 when they reached ~75-100% confluence (every 2-3 days) as follows:
(Gibco) was used to remove the cells from the culture flask (T75, Falcon). 1 mL of the cell suspension was then added to 9 mL of fresh F-12 +/+ and the sample was sub-cultured until reaching confluence (~2-3 days).
Cells were counted using a Countess II Automated Cell Counter (Fisher). The cell suspension was diluted to 240,000 cells/mL with fresh F-12 +/+ and 2.5 mL of this diluted stock was added to one well in a 6-well plate. The cells were then cultured for 24 hours.
Cells were transfected with Lipofectamine 2000 reagent (Invitrogen) or DA 13:11 at a 10:1 charge […]
F-12 +/+ was aspirated and cells were washed with F-12 -/-. 2 mL of fresh F-12 -/- was then added to each well, taking care not to disturb adherent cells. For each well of CHO-k1 cells, 12.5 µL Lipofectamine 2000 reagent (Invitrogen) was added to 250 µL Opti-MEM reduced serum media (Invitrogen) in a polypropylene tube and incubated for 20 minutes at RT. Meanwhile, for each well, 4 µg of PKCδ-GFP pDNA and 250 µL Opti-MEM reduced serum media was added to a separate polypropylene tube. 250 µL of the Lipofectamine 2000 suspension was added to the DNA suspension and the solution incubated for 30 minutes at RT. 500 µL of the Lipofectamine/DNA suspension was added to the respective wells of the 6-well plate. The cells were then incubated at 37 ° C (5% CO2) for ~24 hrs.
F-12 +/+ was aspirated and cells were washed with F-12 -/-. 2.4 mL of fresh F-12 -/- was then added to each well, taking care not to disturb adherent cells. A 4 µg aliquot of PKCδ-GFP pDNA was added to PBS (pH 5.5, final volume 100 µL). 5.6 µL of DA 13:11 (2 mM stock in DMSO) was then added to the DNA solution, and the mixture was gently mixed (by flicking) for 20 seconds, at which point it was added directly to the respective wells of the 6-well plate.

PKC = PKC competitive binding assay, isoform not specified; parameters: species or system human
Experimental: as §1
PKC Binding Assay Protocol […]
competition with 3H-phorbol-12,13-dibutyrate (3H-PDBu) as described below. This procedure entails a glass-fiber filtration method to determine bound radioligand.
Preparation of PKC binding assay buffer
To a 50 mL polypropylene tube was added Tris-HCl (pH 7.4, 1 M, 1 mL), KCl (1 M, 2 mL), CaCl2 (0.1 M, 30 μL), and bovine serum albumin (BSA, 40 mg, Sigma-Aldrich). This mixture was diluted to 20 mL with deionized H2O and mixed gently. The buffer was stored on ice until use. The final […]
Supplementary Table1. PKC binding assay buffer composition.
Preparation of phosphatidylserine (PS) vesicles
For every two assays, 3.5 mg phosphatidylserine (Avanti Polar Lipids, porcine, 25 mg/mL CHCl3 solution) was concentrated by removing chloroform under a stream of nitrogen followed by reduced pressure. The solid PS was suspended as vesicles in freshly prepared PKC binding assay buffer (3.5 mL) by sonicating six times for 30 sec, with a 30 sec rest between sonications (Branson Sonifier 250, power = 2, 50% duty cycle). The resulting milky cloudy mixture (1 mg/mL) was stored […]
Preparation of PKC isoform solution
Assay PKC was prepared by dissolving a 4 μg aliquot of the indicated recombinant human PKC isoform (Invitrogen) into 11.6 mL of PKC binding assay buffer (this amount is sufficient for two assays). The diluted PKC was stored on ice for immediate use.
Preparation of 3H-PDBu solution
3H-PDBu (American Radiolabeled Chemicals, Inc.; 1 mCi/mL acetone solution; specific activity: […]) was diluted 10-fold with DMSO. The resulting 500 nM stock solution was further diluted with DMSO to 30 nM.
Preparation of analog compound dilutions
Compound dilutions were prepared by serially diluting from a chosen "high" concentration by factors of 3 or 4. For each analog compound, seven concentrations were used to define the […]
To a polypropylene tube was added 3.3 mL of 1 mg/mL PS vesicles solution, 11 mL of PKC isoform solution, and 1.1 mL of 30 nM 3H-PDBu solution were added. The resulting solution was vortexed to mix and stored on ice.
PKC binding assay protocol
- Glass-fiber filters (Whatman GF/B) were prepared by soaking them in a solution of […]

[1] = tested on: CD22 surface expression in NALM6 cells; assay: CD22 surface expression in NALM6 cells (flow cytometry); format: cell-based, human; details: NALM6 cells at 1 nM relative to DMSO control; 24 h incubation, washout, 24 h sub-culture; n = 3
Experimental: CD22 Surface Expression Protocol – NALM6 Cells […]
unless otherwise noted below) at 37 ° C in an incubator (5% CO2). Cell cultures were maintained […]
Cell suspension from a confluent T75 flask (Fisher) was transferred to a 15 mL falcon tube and centrifuged at 1100 rpm for 7 minutes. The supernatant was aspirated, and the cell pellet was […]
Cells were counted using a Countess II Automated Cell
199 µL of this stock was added to 24 wells (enough for triplicate measurements for 8 different experimental conditions) in a 96-well plate. Dosing was […]
each experiment. 1 µL of DMSO or the appropriate stock solution of compound in DMSO was added to each well. Cells were incubated for 24 hours, at which point the cell suspensions were transferred to 1.5 mL Eppendorf tubes and diluted with 1.0 mL of PBS (Hyclone, without Ca2+ or Mg2+). Samples were centrifuged at 2000 rpm for 5 min at RT. The supernatant was aspirated, […]
Cells were sub-cultured between 2 […]
surface expression was assayed by flow cytometry.
Cells from one well were counted using a Countess II Automated Cell Counter (Fisher). ~200,000 – 300,000 cells from each well were added to 1.5 mL Eppendorf tubes containing PBS (final volume ~1.2 mL). The cell suspensions were centrifuged at 1500 rpm for 7 minutes at 4 °C. The supernatant was aspirated, and the cell pellet was resuspended in 99 µL of pre-chilled FACS […]
buffer (0.5% w/v BSA in PBS). […]
minutes. Samples were then diluted with an additional 1.0 mL of FACS buffer and centrifuged at 1500 rpm for 7 minutes at 4 °C. The supernatant was aspirated, the cell pellets were resuspended in 200 µL FACS buffer, and the resulting suspensions were transferred to FACS tubes (Fisher, […]
Cells were stained with DAPI and CD22 surface expression was analyzed using the FACScan Analyzer at the Stanford Shared FACS Facility. Data analysis was performed using FlowJo and Microsoft Excel.

[2] = CHO-k1 cells, n = 3, read-out: % Translocation (maximum translocation of PKCδ-GFP to the plasma membrane)

T1 sequence (Q05655 whole entry, the tested form may be a part): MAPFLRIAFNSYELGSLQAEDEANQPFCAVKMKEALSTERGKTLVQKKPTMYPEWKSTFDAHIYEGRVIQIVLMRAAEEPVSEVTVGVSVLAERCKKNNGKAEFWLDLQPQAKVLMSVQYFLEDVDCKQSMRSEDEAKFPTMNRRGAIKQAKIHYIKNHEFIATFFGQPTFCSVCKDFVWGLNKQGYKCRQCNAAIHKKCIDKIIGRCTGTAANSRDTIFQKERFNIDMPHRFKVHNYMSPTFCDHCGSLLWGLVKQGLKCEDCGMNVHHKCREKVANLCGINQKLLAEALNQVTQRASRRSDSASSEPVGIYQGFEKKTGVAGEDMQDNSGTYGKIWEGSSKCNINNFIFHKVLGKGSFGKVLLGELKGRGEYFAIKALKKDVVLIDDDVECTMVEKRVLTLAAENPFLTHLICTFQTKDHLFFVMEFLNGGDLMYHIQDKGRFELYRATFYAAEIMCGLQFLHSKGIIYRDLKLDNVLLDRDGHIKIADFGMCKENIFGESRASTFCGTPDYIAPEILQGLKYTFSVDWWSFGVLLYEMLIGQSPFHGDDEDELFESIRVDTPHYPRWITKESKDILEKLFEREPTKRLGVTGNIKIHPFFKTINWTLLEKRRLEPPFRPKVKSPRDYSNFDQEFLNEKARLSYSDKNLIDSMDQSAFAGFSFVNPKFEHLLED

| Compound | % Translocation (maximum translocation of PKCδ-GFP to the plasma membrane) (PKCδ-GFP fusion protein; 1000 nM compound, CHO-k1 cells, n = 3) [%] | Emax at 1 µM (PKCδ-GFP fusion protein; [2]) [%] | minimum effective concentration required to induce translocation of PKC-GFP to the membrane (PKCδ-GFP fusion protein; CHO-k1 cells) [nM] | PKC binding affinity in words (PKC; conventional and novel PKC isoforms) | % Translocation (maximum translocation of PKCδ-GFP to the plasma membrane) (PKCδ-GFP fusion protein; 200 nM compound, CHO-k1 cells, n = 3) [%] | Fold increase CD22 expression [1] [fold] | Emax at 0.2 µM (PKCδ-GFP fusion protein; CHO-K1, 200 nM compound, CHO-k1 cells, n = 3, read-out: % Translocation (maximum translocation of PKCδ-GFP to the plasma membrane)) [%] | sustained translocation of PKC (PKCδ-GFP fusion protein; at up to 1000 nM) | decrease in affinity to PKC (PKC; charged substituents at C13, Table 1 data) |
| --- | --- | --- | --- | --- | --- | --- | --- | --- | --- |
| CCCCCC#CC(=O)O[C@H]1/C(=C/C(=O)OC)C[C@H]2C[C@H]([C@@H](C)O)OC(=O)C[C@H](O)C[C@@H]3C[C@H](OC(C)=O)C(C)(C)[C@](O)(C[C@@H]4C[C@@](O)(CO)C[C@H](/C=C/C(C)(C)[C@]1(O)O2)O4)O3 [SUW203] | 50 | ~50 | 1000 | single-digit nanomolar |  |  |  |  |  |
| C=CCOC(=O)/C=C1\C[C@H]2C[C@]3(O)O[C@H](C[C@@H](O)CC(=O)O[C@@H]([C@@H](C)O)C[C@@H]4C/C(=C\C(=O)OC)[C@H](OC(=O)/C=C/C=C/CCC)[C@@](O)(O4)C(C)(C)/C=C/[C@@H](C1)O2)C[C@H](OC(C)=O)C3(C)C [SUW230] |  |  | 200 |  | 65 | 1.62 |  |  |  |
| CCCCCCCC(=O)O[C@H]1/C(=C/C(=O)OC)C[C@H]2C[C@H]([C@@H](C)O)OC(=O)C[C@H](O)C[C@@H]3C[C@H](OC(C)=O)C(C)(C)[C@](O)(C[C@@H]4C[C@@H](C)C[C@H](/C=C/C(C)(C)[C@]1(O)O2)O4)O3 [SUW226] |  |  | 200 |  |  |  | 75 |  |  |
| CCCC=CC=CC(=O)OC1C(=CC(=O)OC)CC2CC(C(C)O)OC(=O)CC(O)CC3CC(OC(C)=O)C(C)(C)C(O)(CC4CC(OC(=O)CCC(=O)O)CC(C=CC(C)(C)C1(O)O2)O4)O3 (stereo not shown) [SUW211] |  | 20 | 1000 |  |  |  |  | did not achieve sustained translocation of PKC | 20-100 fold |
